Laboratory results as given in patent US9227971B2, “Pyrazolo[1,5-a]pyrimidine compounds as mTOR inhibitors” (Merck Sharp & Dohme Corp., priority 2010, dated 2016).
Like-named read-outs stand apart in the source and are kept apart here.

Assays:
[1] = system: phosphorylated AKT Ser473 (pAKT S473), mTORC2 activity, PC3 cells; test: mTOR target engagement assay, immunofluorescent cell-based, pAKT S473 readout (mTORC2 activity); details: Homo sapiens
How it was run: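 After blocking, cells were stained overnight at 4 °C with anti-pAKT S473 antibody, then a fluorescent secondary; inhibition was read as reduced fluorescence intensity.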

[2] = system: phosphorylated 4E-BP1 Thr37/46 (p4E-BP1 Thr37/46), mTORC1 activity, PC3 cells; test: mTOR target engagement assay, immunofluorescent cell-based, p4E-BP1 Thr37/46 readout (mTORC1 activity); details: Homo sapiens
How it was run: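 Seed PC3 cells overnight; treat with compound dilutions for ninety minutes at 37° C; fix with glyoxal and block; stain with anti-p4E-BP1 Thr37/46 overnight at 4° C, then fluorescent secondary; read fluorescence and fit IC50 against DMSO-only controls.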

[3] = PC-3, PC3 cells, compound treatment ninety minutes at 37° C.
[4] = PC-3, PC3 cells, compound treatment ninety minutes at 37° C., read-out: p4E-BP1 Thr37/46 IC50
[5] = PC-3, Table 3-1, PC3 cells, read-out: p4E-BP1 Thr37/46 IC50
[6] = PC-3, PC3 cells, read-out: p4E-BP1 Thr37/46 IC50

Structure (SMILES) | IC50 [1, 3] [µM] | IC50 [2, 4] [µM] | also measured
CC(=O)c1c([C@@H]2C[C@H]3CC[C@@H](C2)N3C(=O)C2(O)CC2)nc2c(-c3ccc(-c4ccccc4)nc3)cnn2c1N [Compound 1.1.48, 1-(7-amino-5-((1R,3s,5S)-8-(1-hydroxycyclopropanecarbonyl)-8-azabicyclo[3.2.1]octan-3-yl)-3-(6-phenylpyridin-3-yl)pyrazolo[1,5-a]pyrimidin-6-yl)ethanone] | 0.1 to 1 | 0.1 to 1 | 
CS(=O)(=O)c1c([C@@H]2C[C@H]3CC[C@@H](C2)N3C(=O)CO)nc2c(-c3ccc(-n4cccn4)nc3)cnn2c1N [Compound 3.153, 1-((1R,3s,5S)-3-(3-(6-(1H-pyrazol-1-yl)pyridin-3-yl)-7-amino-6-(methylsulfonyl)pyrazolo[1,5-a]pyrimidin-5-yl)-8-azabicyclo[3.2.1]octan-8-yl)-2-hydroxyethanone] |  |  | IC50 ([1]; PC-3, Table 3-1, PC3 cells): 0.1 to 1 µM; IC50 [2, 5]: 1 to 10 µM
CC(=O)c1c([C@@H]2C[C@H]3CC[C@@H](C2)N3C(=O)CO)nc2c(-c3ccc(C4(O)CCC4)nc3)cnn2c1N [Compound 7.18, 1-((1R,3s,5S)-3-(6-acetyl-7-amino-3-(6-(1-hydroxycyclobutyl)pyridin-3-yl)pyrazolo[1,5-a]pyrimidin-5-yl)-8-azabicyclo[3.2.1]octan-8-yl)-2-hydroxyethanone] | 0.1 to 1 | 0.1 to 1 | 
CCC(=O)c1ccc(-c2cnn3c(N)c(C(C)=O)c([C@@H]4C[C@H]5CC[C@@H](C4)N5C(=O)c4nnc[nH]4)nc23)cn1 [Compound 1.1.83, 1-(5-(5-((1R,3s,5S)-8-(4H-1,2,4-triazole-3-carbonyl)-8-azabicyclo[3.2.1]octan-3-yl)-6-acetyl-7-aminopyrazolo[1,5-a]pyrimidin-3-yl)pyridin-2-yl)propan-1-one] | 0.1 to 1 | 0.1 to 1 | 
CC(=O)c1c([C@@H]2C[C@H]3CC[C@@H](C2)N3C(=O)CF)nc2c(-c3ccc(-c4ncc[nH]4)nc3)cnn2c1N [Compound 6.22, 1-((1R,3s,5S)-3-(3-(6-(1H-imidazol-2-yl)pyridin-3-yl)-6-acetyl-7-aminopyrazolo[1,5-a]pyrimidin-5-yl)-8-azabicyclo[3.2.1]octan-8-yl)-2-fluoroethanone] |  |  | IC50 ([1]; PC-3, Table 6-1, PC3 cells): 0.001 to 0.1 µM; IC50 ([2]; PC-3, read-out: p4E-BP1 Thr37/46 IC50): 0.001 to 0.1 µM
CC(=O)c1c([C@@H]2C[C@H]3CC[C@@H](C2)N3C(=O)c2cc(N)n[nH]2)nc2c(-c3ccc(C(N)(C(F)(F)F)C(F)(F)F)nc3)cnn2c1N [Compound 7.84, 1-(7-amino-3-(6-(2-amino-1,1,1,3,3,3-hexafluoropropan-2-yl)pyridin-3-yl)-5-((1R,3s,5S)-8-(3-amino-1H-pyrazole-5-carbonyl)-8-azabicyclo[3.2.1]octan-3-yl)pyrazolo[1,5-a]pyrimidin-6-yl)ethanone] |  |  | IC50 ([1]; PC-3, PC3 cells): 1 to 10 µM; IC50 [2, 6]: 1 to 10 µM
CS(=O)(=O)c1c([C@@H]2C[C@H]3CC[C@@H](C2)N3c2noc(=O)[nH]2)nc2c(-c3ccc(-c4ccccc4)nc3)cnn2c1N [Compound 8.74, 3-((1R,3s,5S)-3-(7-amino-6-(methylsulfonyl)-3-(6-phenylpyridin-3-yl)pyrazolo[1,5-a]pyrimidin-5-yl)-8-azabicyclo[3.2.1]octan-8-yl)-1,2,4-oxadiazol-5(4H)-one] |  |  | IC50 ([1]; PC-3, PC3 cells): 1 to 10 µM; IC50 [2, 6]: > 10 µM
COCc1c([C@@H]2C[C@H]3CC[C@@H](C2)N3C(=O)c2cc(N)n[nH]2)nc2c(-c3ccc(-c4ccccc4)nc3)cnn2c1N [Compound 5.5, (3-amino-1H-pyrazol-5-yl)((1R,3s,5S)-3-(7-amino-6-(methoxymethyl)-3-(6-phenylpyridin-3-yl)pyrazolo[1,5-a]pyrimidin-5-yl)-8-azabicyclo[3.2.1]octan-8-yl)methanone] | 0.1 to 1 | 1 to 10 | 
CC(=O)C(=O)N1[C@@H]2CC[C@H]1C[C@H](c1nc3c(-c4ccc(-c5ccccc5)nc4)cnn3c(N)c1C(C)=O)C2 [Compound 1.1.117, 1-((1R,3s,5S)-3-(6-acetyl-7-amino-3-(6-phenylpyridin-3-yl)pyrazolo[1,5-a]pyrimidin-5-yl)-8-azabicyclo[3.2.1]octan-8-yl)propane-1,2-dione] | 0.1 to 1 | 0.1 to 1 | 
CC(=O)c1c([C@@H]2C[C@H]3CC[C@@H](C2)N3C(N)=O)nc2c(-c3ccc(-c4ccc(F)cc4)nc3)cnn2c1N [Compound 1.11..170, (1R,3s,5S)-3-(6-acetyl-7-amino-3-(6-(4-fluorophenyl)pyridin-3-yl)pyrazolo[1,5-a]pyrimidin-5-yl)-8-azabicyclo[3.2.1]octane-8-carboxamide] | 0.001 to 0.1 | 0.001 to 0.1 | 
COc1ccc(-c2ccc(-c3cnn4c(N)c(C(C)=O)c([C@@H]5C[C@H]6CC[C@@H](C5)N6C(=O)c5nnc[nH]5)nc34)cn2)c(F)c1 [Compound 1.1.47, 1-(5-((1R,3s,5S)-8-(4H-1,2,4-triazole-3-carbonyl)-8-azabicyclo[3.2.1]octan-3-yl)-7-amino-3-(6-(2-fluoro-4-methoxyphenyl)pyridin-3-yl)pyrazolo[1,5-a]pyrimidin-6-yl)ethanone] | 0.001 to 0.1 | 0.001 to 0.1 | 
CC(=O)c1c([C@@H]2C[C@H]3CC[C@@H](C2)N3C(=O)C2CCS(=O)(=O)N2)nc2c(-c3ccc(-c4ccccc4)nc3)cnn2c1N (mixture of isomers) [Compound 1.1.4, (EXO)-3-[6-ACETYL-7-AMINO-3-(6-PHENYL-3-PYRIDINYL)PYRAZOLO[1,5-a]PYRIMIDIN-5-YL]-8-[(1,1-DIOXIDO-3-ISOTHIAZOLIDINYL)CARBONYL]-8-AZABICYCLO[3.2.1]OCTANE (MIX. OF 2 DIASTEREOMERS)] | 0.1 to 1 | 0.1 to 1 | 
Cc1n[nH]c(C(=O)N2[C@@H]3CC[C@H]2C[C@H](c2nc4c(-c5ccc(-c6ccccc6)nc5)cnn4c(N)c2S(C)(=O)=O)C3)n1 [Compound 3.4, ((1R,3s,5S)-3-(7-amino-6-(methylsulfonyl)-3-(6-phenylpyridin-3-yl)pyrazolo[1,5-a]pyrimidin-5-yl)-8-azabicyclo[3.2.1]octan-8-yl)(3-methyl-1H-1,2,4-triazol-5-yl)methanone] |  |  | IC50 ([1]; PC-3, Table 3-1, PC3 cells): 0.001 to 0.1 µM; IC50 [2, 5]: 0.001 to 0.1 µM
CC(=O)c1c([C@@H]2C[C@H]3CC[C@@H](C2)N3C(=O)c2nnc[nH]2)nc2c(-c3ccc(-c4nccs4)nc3)cnn2c1N [Compound 1.1.37, 1-(5-((1R,3s,5S)-8-(4H-1,2,4-triazole-3-carbonyl)-8-azabicyclo[3.2.1]octan-3-yl)-7-amino-3-(6-(thiazol-2-yl)pyridin-3-yl)pyrazolo[1,5-a]pyrimidin-6-yl)ethanone] | 0.001 to 0.1 | 0.001 to 0.1 | 
CC(=O)c1c([C@@H]2C[C@H]3CC[C@@H](C2)N3C(=O)c2nnc[nH]2)nc2c(-c3ccc(-n4ccnc4)nc3)cnn2c1N [Compound 1.1.129, 1-(3-(6-(1H-imidazol-1-yl)pyridin-3-yl)-5-((1R,3s,5S)-8-(4H-1,2,4-triazole-3-carbonyl)-8-azabicyclo[3.2.1]octan-3-yl)-7-aminopyrazolo[1,5-a]pyrimidin-6-yl)ethanone] | > 10 | > 10 | 
CC(=O)c1c([C@@H]2C[C@H]3CC[C@@H](C2)N3C(=O)c2nnc[nH]2)nc2c(-c3ccc(C#CCO)nc3)cnn2c1N [Compound 8.56, 1-(5-((1R,3s,5S)-8-(4H-1,2,4-triazole-3-carbonyl)-8-azabicyclo[3.2.1]octan-3-yl)-7-amino-3-(6-(3-hydroxyprop-1-ynyl)pyridin-3-yl)pyrazolo[1,5-a]pyrimidin-6-yl)ethanone] |  |  | IC50 ([1]; PC-3, PC3 cells): 0.1 to 1 µM; IC50 [2, 6]: 0.1 to 1 µM
COCCOc1nnc(C(=O)N2C3CCC2CC(c2nc4c(-c5ccc(-c6ccccc6)nc5)cnn4c(N)c2C2CC2)C3)[nH]1 [Compound 8.100, ((1R,3s,5S)-3-(7-amino-6-cyclopropyl-3-(6-phenylpyridin-3-yl)pyrazolo[1,5-a]pyrimidin-5-yl)-8-azabicyclo[3.2.1]octan-8-yl)(5-(2-methoxyethoxy)-4H-1,2,4-triazol-3-yl)methanone] |  |  | IC50 ([1]; PC-3, PC3 cells): 0.1 to 1 µM; IC50 [2, 6]: 0.1 to 1 µM
CC(=O)c1c([C@@H]2C[C@H]3CC[C@@H](C2)N3C(=O)c2nnc(N)[nH]2)nc2c(-c3ccc(C(C)(C)O)nc3)cnn2c1N [Compound 7.13, 1-(7-amino-5-((1R,3s,5S)-8-(5-amino-4H-1,2,4-triazole-3-carbonyl)-8-azabicyclo[3.2.1]octan-3-yl)-3-(6-(2-hydroxypropan-2-yl)pyridin-3-yl)pyrazolo[1,5-a]pyrimidin-6-yl)ethanone] | 0.1 to 1 | 0.1 to 1 | 
CC(=O)c1c([C@@H]2C[C@H]3CC[C@@H](C2)N3C(=O)c2nnc[nH]2)nc2c(-c3ccc(C(O)CC(C)C)nc3)cnn2c1N (stereo partly drawn) [Compound 7.6, 1-(5-((1R,3s,5S)-8-(4H-1,2,4-triazole-3-carbonyl)-8-azabicyclo[3.2.1]octan-3-yl)-7-amino-3-(6-(1-hydroxy-3-methylbutyl)pyridin-3-yl)pyrazolo[1,5-a]pyrimidin-6-yl)ethanone] | 1 to 10 | 0.1 to 1 | 
CC(=O)c1c(C2CC3COCC(C2)N3C(=O)c2nc[nH]n2)nc2c(-c3cnn(-c4ccccc4)c3)cnn2c1N (stereo not shown) [Compound 8.26, 1-(5-(9-(1H-1,2,4-triazole-3-carbonyl)-3-oxa-9-azabicyclo[3.3.1]nonan-7-yl)-7-amino-3-(1-phenyl-1H-pyrazol-4-yl)pyrazolo[1,5-a]pyrimidin-6-yl)ethanone] |  |  | IC50 ([1]; PC-3, PC3 cells): 0.001 to 0.1 µM; IC50 [2, 6]: 0.1 to 1 µM
